# Reference: patent US8685469B2, “In vitro anti-sickling activity of betulinic acid, oleanolic acid and their derivatives” (University of KwaZulu-Natal, priority 2009, dated 2014)
# Tested on: sickled blood cells (SS blood erythrocytes)
# Assay: In vitro anti-sickling activity, Emmel test on SS blood
# Format: cell-based
# Conditions: for Emmel Test Result: 2% sodium metabisulphite, 2 hours anaerobic, compounds diluted in NaCl 0.9%
# Method: Blood samples were collected from “Centre de Medecine Mixte et d'Anémie SS” located in Kinshasa, Democratic Republic of Congo (DRC). The blood samples were first characterised by Hb electrophoresis on cellulose acetate gel, in order to confirm their SS nature, as previously reported by Mpiana et al., 2007^6. Confirmed SS blood samples were refrigerated at ˜4° C., and used for Emmel test.
# A drop of physiological solution was put on a glass slide and a drop of SS blood was added on the physiological solution. One drop of 2% sodium metabisulphite solution was added on the slide glass which was hermetically covered using a cover glass with melted paraffin wax and kept covered for 2 hours in order to accelerate the sickling of the blood. After 2 hours in anaerobic conditions, the blood sample became deoxygenated and adopted sickle shape. Assay was observed under an optical microscope and the number of observed erythrocytes was determined using Thomas' cell (Courtejoie, J. and Hartaing, I, 1992)^7.
# SS blood samples were contacted at different concentrations with diluted samples of the compounds (8), (9), (10), and (11) using physiological solution (NaCl 0.9%) as dilution solvent, according to Emmel's test procedure as reported above and optical measurements were taken.
# Pictures were obtained with an optical microscope (motic). In order to convert the photonic micrograph image into a digital image, a Canon digital camera (Zoom X6) was used to digitize micrographs using Motic Images 200 version 1.3 software, on Windows XP. Thomas' cell was used to observe the number of erythrocytes. The results of the in vitro anti-sickling activity of betulinic acid (8), 3-acetoxybetulinic acid (11), oleanolic acid (9) and maslinic acid (10) are shown in Table 1.
smiles,measurement,setting,value
"C=C(C)[C@@H]1CC[C@]2(C(=O)O)CC[C@]3(C)[C@H](CC[C@@H]4[C@@]5(C)CC[C@H](O)C(C)(C)[C@@H]5CC[C@]43C)[C@@H]12 [DS/10/C/A, Betulinic acid]",Emmel Test Result,,+++ (+++ = >70% normalisation of sickled blood cells.)
"C=C(C)[C@@H]1CC[C@]2(C(=O)O)CC[C@]3(C)[C@H](CC[C@@H]4[C@@]5(C)CC[C@H](OC(C)=O)C(C)(C)[C@@H]5CC[C@]43C)[C@@H]12 [DS/10/C/Ab, 3-acetoxybetulinic acid]",Emmel Test Result,,+++ (+++ = >70% normalisation of sickled blood cells.)
"CC1(C)CC[C@]2(C(=O)O)CC[C@]3(C)C(=CC[C@@H]4[C@@]5(C)CC[C@H](O)C(C)(C)[C@@H]5CC[C@]43C)[C@@H]2C1 [DS/FS/1, Oleanolic acid]",Emmel Test Result,,+ (+ = 10 to 50% normalisation of sickled blood cells.)
same,normalisation of sickled blood cells,"Emmel test, in vitro",10-50%
"CC1(C)CC[C@]2(C(=O)O)CC[C@]3(C)C(=CC[C@@H]4[C@@]5(C)C[C@@H](O)[C@H](O)C(C)(C)[C@@H]5CC[C@]43C)[C@@H]2C1 [DS/FS/2, Maslinic acid]",Emmel Test Result,,+++ (+++ = >70% normalisation of sickled blood cells.)
